Results on six compounds are retold here after PubChem BioAssay AID1259407 (Chemical Carcinogenesis Research Information System (CCRIS), 2018).

This series concerns CCRIS mutagenicity, Ames/micronucleus/aberration tests. Briefly: CCRIS mutagenicity studies.
[1] abbreviates: Test System: AMES SALMONELLA TYPHIMURIUM, Strain/Indicator: TA98, Metabolic Activation: RAT, LIVER, S-9, AROCLOR 1254, Method: PREINCUBATION
[2] abbreviates: Test System: AMES SALMONELLA TYPHIMURIUM, Strain/Indicator: TA100, Metabolic Activation: RAT, LIVER, S-9, AROCLOR 1254, Method: PREINCUBATION
Where [3] appears, read: Test System: AMES SALMONELLA TYPHIMURIUM, Strain/Indicator: TA98, Metabolic Activation: NONE, Method: PREINCUBATION
Setting [4] is: Test System: AMES SALMONELLA TYPHIMURIUM, Strain/Indicator: TA100, Metabolic Activation: NONE, Method: PREINCUBATION

Molecules are shown by their SMILES. Activity calls are given as the source filed them. The rule behind the calls is not given here.

Regarding `CC(C)[N+](=O)[O-]`, the mutagenic call reads like this: (End Point: IN VITRO CHROMOSOMAL ABERRATIONS, Test System: CHINESE HAMSTER OVARY CELLS, Metabolic Activation: NONE) “inactive; negative”; (End Point: IN VITRO CHROMOSOMAL ABERRATIONS, Test System: CHINESE HAMSTER OVARY CELLS, Metabolic Activation: RAT, LIVER, S-9, AROCLOR 1254) “inactive; negative”; (End Point: In vitro chromosomal aberrations, Test System: Chinese hamster lung (CHL/IU) cells, Metabolic Activation: None) “inactive; negative”; (End Point: In vitro chromosomal aberrations, Test System: Chinese hamster lung (CHL/IU) cells, Metabolic Activation: Rat, Liver, S9, Phenobarbital and 5,6-benzoflavone) “inactive; negative”; (Test System: AMES SALMONELLA TYPHIMURIUM, Strain/Indicator: TA98(NR), Metabolic Activation: NONE, Method: PREINCUBATION) “active; positive”; (Test System: AMES SALMONELLA TYPHIMURIUM, Strain/Indicator: TA98(NR), Metabolic Activation: RAT, LIVER, S-9, CLOPHEN A-50, Method: PREINCUBATION) “active; positive”. Further, the mutagenic call was “active; positive” under setting [1]; “active; positive” (Test System: AMES SALMONELLA TYPHIMURIUM, Strain/Indicator: TA98, Metabolic Activation: RAT, LIVER, S-9, CLOPHEN A-50, Method: PREINCUBATION); “active; positive” (Test System: AMES SALMONELLA TYPHIMURIUM, Strain/Indicator: TA98, Metabolic Activation: RAT, LIVER, S-9, KANECHLOR 500, Method: PREINCUBATION); “active; positive” (Test System: AMES SALMONELLA TYPHIMURIUM, Strain/Indicator: TA100(NR), Metabolic Activation: NONE, Method: PREINCUBATION); “active; positive” (Test System: AMES SALMONELLA TYPHIMURIUM, Strain/Indicator: TA100(NR), Metabolic Activation: RAT, LIVER, S-9, CLOPHEN A-50, Method: PREINCUBATION); “active; positive” under setting [2]. Also, the mutagenic call is “active; positive” (Test System: AMES SALMONELLA TYPHIMURIUM, Strain/Indicator: TA100, Metabolic Activation: RAT, LIVER, S-9, AROCLOR, Method: PREINCUBATION); “active; positive” (Test System: AMES SALMONELLA TYPHIMURIUM, Strain/Indicator: TA100, Metabolic Activation: RAT, LIVER, S-9, CLOPHEN A-50, Method: PREINCUBATION); “active; positive” (Test System: AMES SALMONELLA TYPHIMURIUM, Strain/Indicator: TA100, Metabolic Activation: RAT, LIVER, S-9, KANECHLOR 500, Method: PREINCUBATION); “active; positive” (Test System: AMES SALMONELLA TYPHIMURIUM, Strain/Indicator: TA102, Metabolic Activation: NONE, Method: PREINCUBATION); “active; positive” (Test System: AMES SALMONELLA TYPHIMURIUM, Strain/Indicator: TA102, Metabolic Activation: RAT, LIVER, S-9, AROCLOR 1254, Method: PREINCUBATION); “active; positive” (Test System: AMES SALMONELLA TYPHIMURIUM, Strain/Indicator: TA102, Metabolic Activation: RAT, LIVER, S-9, AROCLOR, Method: PREINCUBATION). Further, the mutagenic call is “active; positive” (Test System: CHINESE HAMSTER V-79, Strain/Indicator: V-79/6-THIOGUANINE, Metabolic Activation: NONE, Method: STANDARD PLATE); “inactive; negative” (Test System: CHINESE HAMSTER V-79, Strain/Indicator: V-79/6-THIOGUANINE, Metabolic Activation: RAT, HEPATOCYTES); “inactive; negative” (Test System: CHINESE HAMSTER V-79, Strain/Indicator: V-79/OUABAIN, Metabolic Activation: NONE); “inactive; negative” (Test System: CHINESE HAMSTER V-79, Strain/Indicator: V-79/OUABAIN, Metabolic Activation: RAT, HEPATOCYTES); “active; positive” (Test System: E. COLI, Strain/Indicator: WP2 UVRA (PKM101), Metabolic Activation: NONE, Method: PREINCUBATION); “active; positive” (Test System: E. COLI, Strain/Indicator: WP2 UVRA (PKM101), Metabolic Activation: RAT, LIVER, S-9, KANECHLOR 1254, Method: PREINCUBATION). For the same compound, the mutagenic call by setting is: (Test System: UDS HUMAN HEPATOCYTES, Strain/Indicator: THY INCORP, Metabolic Activation: NONE, Method: AUTORADIOGRAPHY) “active; positive”; (Test System: UDS HUMAN HEPATOCYTES, Strain/Indicator: THY-INCORP, Metabolic Activation: NONE, Method: AUTORADIOGRAPHY) “active; positive”; (Test System: UDS MOUSE HEPATOCYTES, Strain/Indicator: THY INCORP, Metabolic Activation: NONE, Method: AUTORADIOGRAPHY) “active; positive”; (Test System: UDS RAT HEPATOCYTES, Strain/Indicator: THY INCORP, Metabolic Activation: NONE) “active; positive”; (Test System: UDS RAT HEPATOCYTES, Strain/Indicator: THY INCORP, Metabolic Activation: NONE, Method: AUTORADIOGRAPHY) “active; positive”; (Test System: UDS RAT HEPATOCYTES, Strain/Indicator: THY-INCORP, Metabolic Activation: NONE, Method: AUTORADIOGRAPHY) “active; positive”. The mutagenic call is, setting by setting: (Test System: UDS RODENT HEPATOCYTES, Strain/Indicator: THY INCORP (NON-S-PHASE), Metabolic Activation: IN VIVO, Method: AUTORADIOGRAPHY) “active; positive”; (Test System: UDS RODENT HEPATOCYTES, Strain/Indicator: THY INCORP (NON-S-PHASE), Metabolic Activation: NONE, Method: LIQUID SCINTILLATION COUNTING) “active; positive”; (Test System: UDS RODENT HEPATOCYTES, Strain/Indicator: THY INCORP (NON-S-PHASE), Metabolic Activation: NONE, Method: PREINCUBATION) “inactive; negative”.
For the compound `CC(=O)CCN(C)N=O`, the mutagenic call (Test System: CHINESE HAMSTER V-79, Strain/Indicator: V-79/OUABAIN, Metabolic Activation: HAMSTER, HEPATOCYTES, Method: CELL-MEDIATED) is “active; positive”.
In the case of `CC(=O)Oc1ccc(CCl)cc1`, the mutagenic call (Test System: AMES SALMONELLA TYPHIMURIUM, Strain/Indicator: TA100, Metabolic Activation: NONE, Method: STANDARD PLATE) is “active; positive”.
On to `Nc1c(F)cc(-c2cc(F)c(N)c(F)c2)cc1F`, for which the mutagenic call (Test System: UDS HUMAN CELLS, Strain/Indicator: THY INCORP (NON-S-PHASE), Metabolic Activation: RAT, LIVER, S-9, PHENOBARBITAL, Method: LIQUID SCINTILLATION COUNTING) is “active; positive”.
Turning to `C(=C/c1ccccc1)/c1ccccc1`, the mutagenic call is, setting by setting: (Test System: AMES SALMONELLA TYPHIMURIUM, Strain/Indicator: TA98, Metabolic Activation: HAMSTER, LIVER, S-9, AROCLOR 1254, Method: PREINCUBATION) “inactive; negative”; under setting [3], “inactive; negative”; under setting [1], “inactive; negative”; (Test System: AMES SALMONELLA TYPHIMURIUM, Strain/Indicator: TA100, Metabolic Activation: HAMSTER, LIVER, S-9, AROCLOR 1254, Method: PREINCUBATION) “inactive; negative”; under setting [4], “inactive; negative”; under setting [2], “inactive; negative”. Moreover, the mutagenic call is “inactive; negative” (Test System: AMES SALMONELLA TYPHIMURIUM, Strain/Indicator: TA1535, Metabolic Activation: HAMSTER, LIVER, S-9, AROCLOR 1254, Method: PREINCUBATION); “inactive; negative” (Test System: AMES SALMONELLA TYPHIMURIUM, Strain/Indicator: TA1535, Metabolic Activation: NONE, Method: PREINCUBATION); “inactive; negative” (Test System: AMES SALMONELLA TYPHIMURIUM, Strain/Indicator: TA1535, Metabolic Activation: RAT, LIVER, S-9, AROCLOR 1254, Method: PREINCUBATION); “inactive; negative” (Test System: AMES SALMONELLA TYPHIMURIUM, Strain/Indicator: TA1537, Metabolic Activation: HAMSTER, LIVER, S-9, AROCLOR 1254, Method: PREINCUBATION); “inactive; negative” (Test System: AMES SALMONELLA TYPHIMURIUM, Strain/Indicator: TA1537, Metabolic Activation: NONE, Method: PREINCUBATION); “inactive; negative” (Test System: AMES SALMONELLA TYPHIMURIUM, Strain/Indicator: TA1537, Metabolic Activation: RAT, LIVER, S-9, AROCLOR 1254, Method: PREINCUBATION).
With `Nc1cccc(N)c1C(=O)O`, the mutagenic call runs as follows: under setting [3], “inactive; negative”; (Test System: AMES SALMONELLA TYPHIMURIUM, Strain/Indicator: TA98, Metabolic Activation: RAT, LIVER, S-9, PHENOBARBITAL AND 5,6-BENZOFLAVONE, Method: PREINCUBATION) “active; positive”; under setting [4], “inactive; negative”; (Test System: AMES SALMONELLA TYPHIMURIUM, Strain/Indicator: TA100, Metabolic Activation: RAT, LIVER, S-9, PHENOBARBITAL AND 5,6-BENZOFLAVONE, Method: PREINCUBATION) “inactive; negative”.
